In patent US8268775B2, “Macrolactone derivatives” (Sanofi, priority 2007, dated 2012):
In brackets after ≈: the same amount, converted by molar mass.

Test system: Candida albicans FH 2173
Test: Antifungal activity against Candida albicans, bouillon dilution method (microdilution)
Format: cell-based
Settings: FH2173, growth inhibition by 50%, Mueller Hinton broth, 37° C., 20 hours, absorption at 590 nm
Method: For the detection of the antifungal activity of rapidly growing, aerobic causative organisms, the bouillon dilution method (microdilution) according to a procedure of the CLSI (Clinical and Laboratory Standards Institute, M7-A7, Vol. 26, No. 2) is used. The IC50 value was determined. This is the concentration of an active substance which is necessary in order to inhibit the growth of the test organism Candida albicans by 50%.
A stock solution of 1000 μg/ml of active substance [for example the compound of the formula (II) or the compound of the formula (IV)] in methanol was prepared. The test strain (Candida albicans FH 2173) was stored at −80° C. The inoculum was prepared from a fresh, liquid preculture. The preculture was prepared from a bead of the material stored at −80° C. and 30 ml of nutrient medium (Sabourad dextrose broth, Difco) and incubated at 37° C. and 180 revolutions per minute for 24 hours. The inoculum is to be adjusted such that after the inoculation of the test container the necessary number of colony-forming units is achieved. For this, the inoculum was adjusted to a value of 10^7 CFU/ml (CFU: colony forming units) by means of a photometer at a wavelength of 590 nm. […] The exact colony count was determined by means of surface culture. […] The microtiter plates were read with the aid of a photometer at a wavelength of 590 nm by measurement of the absorption. […]

For CCC(C)C1C(=O)NC(Cc2cc(Cl)c(O)c(Cl)c2)C(=O)NC(C(C)(C)O)C(=O)OC(c2ccccc2)C(C)/C=C/C=C(\C)C(OC)CC2OC2(C)C(=O)N1C (centres unmarked) [Compound (II)], which IC50 is on record?
The IC50 was 0.06 µg/mL (≈ 0.0735 µM).

With CCC(C)C1C(=O)NC(Cc2cc(Cl)c(OC)c(Cl)c2)C(=O)NC(C(C)(C)O)C(=O)OC(c2ccccc2)C(C)/C=C/C=C(\C)C(OC)CC2OC2(C)C(=O)N1C (centres unmarked) [Compound (IV)] as the compound, how does the IC50 read?
Its IC50 is 0.41 µg/mL (≈ 0.493 µM).
